Counter-ions that a name gives are not always drawn.
Tested on: anesthetized rats
Assay: Anesthetized rat spirometry screening assay (ventilatory activity, minute volume)
Assay type: in vivo
Settings: increase in minute volume (VE); for change in vivo at 0.3 mg/kg: 0.3 mg/kg IV bolus, read-out: VE % Inc @ 0.3 mg/kg IV; for change in vivo at 3 mg/kg: 3.0 mg/kg IV bolus, read-out: VE % Inc @ 3.0 mg/kg IV
Protocol: Anesthetized rats provide a quick method of screening compounds for respiratory and cardiovascular activity.
Rats were initially anesthetized with 3% isoflurane (inhaled) and femoral artery and vein cannulas were surgically inserted. Once cannulated, the rats were transitioned to urethane anesthesia (1.5 g/kg; i.v.) and a tracheal cut-down was performed. After placing the tracheal cannula, it was connected to a pneumotachometer to record respiratory airflow from which respiratory rate (RR), tidal volume (VT), and their product minute volume (MV, also termed VE) were derived. After the surgical preparation was complete, animals were allowed to stabilize for 30 minutes while respiratory rate, tidal volume, minute volume, blood pressure and heart rate were recorded continuously. Arterial blood gases (ABG) were obtained from arterial blood collected from the femoral artery. ABG measurements were taken before and 6 minutes after vehicle and each dose of compound administered. Compounds being screened were administered via bolus injections through the venous cannula followed by a saline flush (total time of administration is approximately 30 seconds), and the animal was monitored for at least 6 minutes for changes in cardiovascular efforts. Compounds were prepared in formulations identified to ensure optimal solubility. As such, vehicle controls were matched for the formulation of each compound tested. Dosing of the compounds being screened was conducted at 0.1 and/or 0.3 mg/kg and/or 3 mg/kg The next dose was not administered until all cardiovascular and respiratory measures had returned to baseline levels. The positive control compounds used were N-[4,6-di-(n-propylamino)-[1,3,5]triazin-2-yl]-N,O-dimethyl-hydroxylamine or N-[2,6-di-(n-propylamino)-[1,3]pyrimidin-4-yl]-N,O-dimethyl-hydroxylamine (both administered at the end of each screening experiment (0.3 mg/kg dose) to validate the experiment and also to serve as a measure with which the compound being screened could be compared.
Data were analyzed by collecting cardiovascular and respiratory data in 30 second averages (BINs). Data were plotted 2 minutes before challenge and then 6 minutes after challenge.

Structure (SMILES)	change in vivo at 0.3 mg/kg	change in vivo at 3 mg/kg
C=C(C)CNc1nc(NC)c2nc(NC[C@@H](C)O)nc(NC)c2n1 [Compound 158, (R)-1-[6-(2-Methyl-allylamino)-4,8-bis-methylamino-pyrimido[5,4-d]-pyrimidin-2-ylamino]-propan-2-ol]	68%	120%
CCNc1nc(NC)nc2c(NCCCO)nc(NC)nc12 [Compound 67a, 3-(8-Ethylamino-2,6-bis-methylamino-pyrimido[5,4-d]-pyrimidin-4-ylamino)-propan-1-ol Hydrochloride]	7%	136%
CCC(O)CNc1nc(NC)c2nc(NCC3CC3)nc(NC)c2n1 (centres unmarked) [Compound 146, 1-[6-(Cyclopropylmethyl-amino)-4,8-bis-methylamino-pyrimido[5,4-d]pyrimidin-2-ylamino]-butan-2-ol]	9%	121%
CCCNc1nc(NCC)c2nc(NCC(C)(C)O)nc(NCC)c2n1 [Compound 163, 1-(4,8-Bis-ethylamino-6-propylamino-pyrimido[5,4-d]pyrimidin-2-ylamino)-2-methyl-propan-2-ol]	88%	144%
CCCNc1nc(NC)c2nc(N[C@@H]3c4ccccc4C[C@@H]3O)nc(NC)c2n1 [Compound 123, (1R,2S)-1-(4,8-Bis-methylamino-6-propylamino-pyrimido[5,4-d]-pyrimidin-2-ylamino)-indan-2-ol]	11%	129%
CCCNc1nc(NCC)nc2c(NCCO)nc(NCC)nc12 [Compound 27a, 2-(2,6-Bis-ethylamino-8-propylamino-pyrimido[5,4-d]pyrimidin-4-ylamino)-ethanol Hydrochloride]	110%	
CCCNc1nc(NC)c2nc(N[C@@H]3CCCC[C@@H]3O)nc(NC)c2n1 [Compound 135, (1S,2R)-2-(4,8-Bis-methylamino-6-propylamino-pyrimido[5,4-d]pyrimidin-2-ylamino)-cyclohexanol]	22%	142%
CCCNc1nc(NC)c2nc(N[C@H]3c4ccccc4C[C@@H]3O)nc(NC)c2n1 [Compound 125, (1S,2S)-1-(4,8-Bis-methylamino-6-propylamino-pyrimido[5,4-d]-pyrimidin-2-ylamino)-indan-2-ol]	38%	84%
CCCNc1nc(NC)nc2c(NCC(O)CC)nc(NC)nc12 (centres unmarked) [Compound 24a, 1-(2,6-Bis-methylamino-8-propylamino-pyrimido[5,4-d]pyrimidin-4-ylamino)-butan-2-ol Hydrochloride]	100%	121%
CCCNc1nc(NC)nc2c(N[C@@H](C)CO)nc(NC)nc12 [Compound 18a, (S)-2-(2,6-Bis-methylamino-8-propylamino-pyrimido[5,4-d]-pyrimidin-4-ylamino)-propan-1-ol Hydrochloride]	50%	
CCCNc1nc(NC)c2nc(N[C@H]3c4ccccc4C[C@H]3O)nc(NC)c2n1 [Compound 127, (1S,2R)-1-(4,8-Bis-methylamino-6-propylamino-pyrimido[5,4-d]-pyrimidin-2-ylamino)-indan-2-ol]	81%	108%
CCCNc1nc(NC)c2nc(NCC(C)(C)O)nc(NC)c2n1 [Compound 94, 1-(4,8-Bis-methylamino-6-propylamino-pyrimido[5,4-d]pyrimidin-2-ylamino)-2-methyl-propan-2-ol]	18%	130%
C=CCNc1nc(NC)c2nc(NCCO)nc(NC)c2n1 [Compound 154, 2-(6-Allylamino-4,8-bis-methylamino-pyrimido[5,4-d]pyrimidin-2-ylamino)-ethanol]	40%	103%
CCCNc1nc(NC)nc2c(NC3Cc4ccccc4C3O)nc(NC)nc12 (racemic) [Compound 81, 2-(2,6-Bis-methylamino-8-propylamino-pyrimido[5,4-d]-pyrimidin-4-ylamino)-indan-1-ol]	50%	72%

Source: patent US10294228B2, “Breathing control modulating compounds, and methods of making and using same” (NEURAD LTD., priority 2015, dated 2019)
